System: cGMP PDE5
Experiment: In vitro PDE inhibitory activity against cGMP PDE5 (IC50)
Type: biochemical
Conditions: table of Examples, read-out: IC50 (in vitro activities as inhibitors of cGMP PDE5)
Experimental: In vitro PDE inhibitory activities against cyclic guanosine 3', 5'-monophosphate (cGMP) and cyclic adenosine 3',5'-monophosphate (cAMP) phosphodiesterases were determined by measurement of their IC50 values (the concentration of compound required for 50% inhibition of enzyme activity).
The required PDE enzymes were isolated from a variety of sources, including human corpus cavernosum, human and rabbit platelets, human cardiac ventricle, human skeletal muscle and bovine retina, essentially by the method of W. J. Thompson and M. M. Appleman (Biochem., 1971, 10, 311). In particular, the cGMP-specific PDE (PDE5) and the cGMP-inhibited cAMP PDE (PDE3) were obtained from human corpus cavernosum tissue, human platelets or rabbit platelets; the cGMP-stimulated PDE (PDE2) was obtained from human corpus cavernosum; the calcium/calmodulin (Ca/CAM)-dependent PDE (PDE1) from human cardiac ventricle; the cAMP-specific PDE (PDE4) from human skeletal is muscle; and the photoreceptor PDE (PDE6) from bovine retina.
Assays were performed using a modification of the "batch" method of W. J. Thompson et al. (Biochem., 1979, 18, 5228).

Row | SMILES | IC50 [nM]
1 | CCCOc1ccc(S(=O)(=O)N2CCN(CCO)CC2)cc1-c1nc2c(C(N)=O)nn(Cc3ccccn3)c2c(=O)[nH]1 [Example 5] | 2.8
2 | CCCOc1ccc(S(=O)(=O)N2CCN(C)CC2)cc1-c1nc2c(C(=O)NC)nn(Cc3cccnc3)c2c(=O)[nH]1 [Example 8] | 4.1
3 | CCOc1ccc(S(=O)(=O)N2CCN(C)CC2)cc1-c1nc2c(C(=O)NC)nn(Cc3ccccc3)c2c(=O)[nH]1 [Example 19, 1-Benzyl-5-[2-ethoxy-5-(4-methylpiperazin-1-ylsulphonyl)]-7-oxo-1,6-dihydro-1H-pyrazolo[4,3-d]pyrimidine-3-N-methylcarboxamide] | 3.4
4 | CCN1CCN(S(=O)(=O)c2cnc(OCCOC)c(-c3nc4c(C(N)=O)nn(Cc5ccccn5)c4c(=O)[nH]3)c2)CC1 [Example 33, 5-[5-(4-Ethylpiperazin-1-ylsulphonyl)-2-(2-methoxyethoxy)pyridin-3-yl]-7-oxo-1-(pyridin-2-yl)methyl-1,6-dihydro-1H-pyrazolo[4,3-d]pyrimidine-3-carboxamide] | 2.8
5 | CCOc1ncc(S(=O)(=O)N2CCN(CC)CC2)cc1-c1nc2c(-c3cccnc3)n(Cc3ncccn3)nc2c(=O)[nH]1 [Example 42] | 2.26

— patent US6333330A, “Pyrazolopyrimidinone CGMP PDE5 inhibitors for the treatment of sexual dysfunction” (Pfizer Inc., priority 1998, dated 2001)
